Values of other authors as cited in PubChem BioAssay AID1259410 (Chemical Carcinogenesis Research Information System (CCRIS), 2018).

Test system: rodent tumor promotion studies, tumor incidence
Experiment: CCRIS tumor promotion studies
[1] = Carcinogen: 7,12-DIMETHYLBENZ(A)ANTHRACENE, Doses [Carcinogen]: TOP, Route [Carcinogen]: DERMAL, Route [Promoter]: DERMAL, Species: MOUSE, Strain/Sex: FEMALE

For `O=C1C=CC(=O)c2c(O)cccc21`, the outcome (Carcinogen: 7,12-DIMETHYLBENZ[A]ANTHRACENE, 57-97-6, Doses [Carcinogen]: 25 NMOL IN 0.2 ML ACETONE ONCE, Doses [Promoter]: 440, 880, 1760 NMOL/MOUSE 1/WK FOR 40 WK BEGINNING 2 WK POST CARCINOGEN DOSE (STUDY DURATION: 42 WK), Doses [Promoter]: 440, 880, 1760 NMOL/MOUSE 1/WK FOR 40 WK BEGINNING 2 WK POST CARCINOGEN DOSE (STUDY DURATION: 42 WK), Route [Carcinogen]: DERMAL, Route [Promoter]: DERMAL, Species: MOUSE, Strain/Sex: SENCAR/FEMALE) is listed as “skin: papilloma”, the outcome (Carcinogen: 7,12-DIMETHYLBENZ[A]ANTHRACENE, 57-97-6, Doses [Carcinogen]: 25 NMOL IN 0.2 ML ACETONE ONCE, Doses [Promoter]: 1760 NMOL/MOUSE 2/WK FOR 40 WK BEGINNING 2 WK POST CARCINOGEN DOSE (STUDY DURATION: 42 WK), Route [Carcinogen]: DERMAL, Route [Promoter]: DERMAL, Species: MOUSE, Strain/Sex: SENCAR/FEMALE) is listed as “skin: papilloma” and the outcome (Carcinogen: 7,12-DIMETHYLBENZ[A]ANTHRACENE, 57-97-6, Doses [Carcinogen]: 25 NMOL IN 0.2 ML ACETONE ONCE, Doses [Promoter]: 1760 NMOL/MOUSE 3/WK FOR 40 WK BEGINNING 2 WK POST CARCINOGEN DOSE (STUDY DURATION: 42 WK), Route [Carcinogen]: DERMAL, Route [Promoter]: DERMAL, Species: MOUSE, Strain/Sex: SENCAR/FEMALE) is listed as “skin: papilloma”. For the same molecule, the outcome (Carcinogen: 7,12-DIMETHYLBENZ[A]ANTHRACENE, 57-97-6, Doses [Carcinogen]: 25 NMOL IN 0.2 ML ACETONE ONCE, Doses [Promoter]: 1760 NMOL/MOUSE 3/WK FOR 60 WK BEGINNING 2 WK POST CARCINOGEN DOSE (STUDY DURATION: 60 WK), Route [Carcinogen]: DERMAL, Route [Promoter]: DERMAL, Species: MOUSE, Strain/Sex: SENCAR/FEMALE) was “skin: carcinoma”.

In the case of `CN=C(NC#N)NCCSCc1nc[nH]c1C`, the outcome (Carcinogen: 1,2-DIMETHYLHYDRAZINE, 540-73-8, Doses [Carcinogen]: 30 MG/KG BW 1/WK FOR 5 WK, Doses [Promoter]: 0, 500 MG/L IN DRINKING WATER BEGINNING 4 D POST LAST CARCINOGEN DOSE (STUDY DURATION: 6 MO), Route [Carcinogen]: GAVAGE, Route [Promoter]: ORAL, Species: RAT, Strain/Sex: SPRAGUE-DAWLEY/MALE) is given as “intestine: tumor”.

For `Cn1c(N)nc2ncc(-c3ccccc3)cc21`, the outcome (Carcinogen: 3,2'-DIMETHYL-4-AMINOBIPHENYL, 13394-86-0, Doses [Carcinogen]: 50 MG/KG BW ONCE/2 WK FOR FIRST 20 WK (STUDY DURATION: 60 WK), Doses [Promoter]: 0, 100, 300 PPM IN DIET FOR 40 WK BEGINNING 20 WK POST CARCINOGEN TREATMENT (STUDY DURATION: 60 WK), Doses [Promoter]: 0, 100, 300 PPM IN DIET FOR 40 WK BEGINNING 20 WK POST CARCINOGEN TREATMENT (STUDY DURATION: 60 WK), Route [Carcinogen]: SUBCUTANEOUS, Route [Promoter]: ORAL, Species: RAT, Strain/Sex: F344/MALE) is listed as “small intestine: adenocarcinoma”, the outcome (Carcinogen: AZOXYMETHANE [25843-45-2], Doses [Carcinogen]: 2 DOSES OF 15 MG/KG BW AT 1 WK INTERVALS STARTING AT 6 WKS OF AGE (STUDY DURATION: 36 WKS), Doses [Promoter]: 0, 0.001, 0.01, 0.1, 1, 10, 50, 200 PPM IN DIET FOR 34 WKS STARTING AFTER CARCINOGEN, Doses [Promoter]: 0, 0.001, 0.01, 0.1, 1, 10, 50, 200 PPM IN DIET FOR 34 WKS STARTING AFTER CARCINOGEN, Route [Carcinogen]: SUBCUTANEOUS, Route [Promoter]: ORAL (DIET), Species: RAT, Strain/Sex: F344/MALE) is listed as “large intestine: adenomas and adenocarcinoma; only doses of 50 and 200 ppm were” and the outcome (Carcinogen: DIETHYLNITROSAMINE, 55-18-5, N-METHYL-N-NITROSOUREA, 684-93-5, N-BUTYL-N-(4-HYDROXYBUTYL)NITROSAMINE, 3817-11-6, 1,, Carcinogen: DIETHYLNITROSAMINE, 55-18-5, N-METHYL-N-NITROSOUREA, 684-93-5, N-BUTYL-N-(4-HYDROXYBUTYL)NITROSAMINE, 3817-11-6, 1,, Doses [Carcinogen]: 100 MG/KG BW DEN ONCE, 20 MG/KG BW MNU 4 TIMES, 0.05% BBN IN DRINKING WATER FOR FIRST 2 WK OF STUDY, 40 MG/KG DMH 4 TIME, Doses [Carcinogen]: 100 MG/KG BW DEN ONCE, 20 MG/KG BW MNU 4 TIMES, 0.05% BBN IN DRINKING WATER FOR FIRST 2 WK OF STUDY, 40 MG/KG DMH 4 TIME, Doses [Promoter]: 0, 60 PPM IN DIET FOR 24 WK BEGINNING AT WK 5 OF STUDY (STUDY DURATION: 29 WK), Route [Carcinogen]: INTRAPERITONEAL, INTRAPERITONEAL, ORAL, SUBCUTANEOUS, ORAL, Route [Carcinogen]: INTRAPERITONEAL, INTRAPERITONEAL, ORAL, SUBCUTANEOUS, ORAL, Route [Promoter]: ORAL, Species: RAT, Strain/Sex: F344/MALE) is listed as “large intestine: adenocarcinoma”. For the same molecule, the outcome (Carcinogen: DIETHYLNITROSAMINE, 55-18-5, N-METHYL-N-NITROSOUREA, 684-93-5, N-BUTYL-N-(4-HYDROXYBUTYL)NITROSAMINE, 3817-11-6, 1,, Carcinogen: DIETHYLNITROSAMINE, 55-18-5, N-METHYL-N-NITROSOUREA, 684-93-5, N-BUTYL-N-(4-HYDROXYBUTYL)NITROSAMINE, 3817-11-6, 1,, Doses [Carcinogen]: 100 MG/KG BW DEN ONCE, 20 MG/KG BW MNU 4 TIMES, 0.05% BBN IN DRINKING WATER FOR FIRST 2 WK OF STUDY, 40 MG/KG DMH 4 TIME, Doses [Carcinogen]: 100 MG/KG BW DEN ONCE, 20 MG/KG BW MNU 4 TIMES, 0.05% BBN IN DRINKING WATER FOR FIRST 2 WK OF STUDY, 40 MG/KG DMH 4 TIME, Doses [Promoter]: 0, 300 PPM IN DIET FOR 24 WK BEGINNING AT WK 5 OF STUDY (STUDY DURATION: 29 WK), Route [Carcinogen]: INTRAPERITONEAL, INTRAPERITONEAL, ORAL, SUBCUTANEOUS, ORAL, Route [Carcinogen]: INTRAPERITONEAL, INTRAPERITONEAL, ORAL, SUBCUTANEOUS, ORAL, Route [Promoter]: ORAL, Species: RAT, Strain/Sex: F344/MALE) was “small intestine: adenocarcinoma; large intestine: adenocarcinoma”.

For `O=C(OOC(=O)c1ccccc1)c1ccccc1`, the outcome [1] is given as “integumentary system (skin)”, the outcome (Carcinogen: 7,12-DIMETHYLBENZ[A]ANTHRACENE, 57-97-6, Doses [Carcinogen]: 0.1% IN MINERAL OIL APPLIED TO BUCCAL POUCHES 3/WK FOR 10 WK, Doses [Promoter]: 0, 40% IN ACETONE APPLIED TO BUCCAL POUCHES 3/WK FOR 6 WK BEGINNING 6 WK POST CARCINOGEN TREATMENT (STUDY DURATION: 25 W, Route [Carcinogen]: DERMAL, Route [Promoter]: DERMAL, Species: HAMSTER, Strain/Sex: SYRIAN/MALE, FEMALE) is given as “buccal pouch: tumor, carcinoma” and the outcome (Carcinogen: 7,12-DIMETHYLBENZ[A]ANTHRACENE, 57-97-6, Doses [Carcinogen]: 20 NMOL IN ACETONE ONCE, Doses [Promoter]: 0, 0.2 ML OF 100 MG/ML SOLUTION IN ACETONE 2/WK FOR 51 WK (STUDY DURATION: 52 WK), Route [Carcinogen]: DERMAL, Route [Promoter]: DERMAL, Species: MOUSE, Strain/Sex: SENCAR/FEMALE) is given as “skin: squamous cell carcinoma”. For the same molecule, the outcome (Carcinogen: N-METHYL-N'-NITRO-N-NITROSOGUANIDINE, 70-25-7, Doses [Carcinogen]: 4 UMOL IN 200 µL ACETONE ONCE, Doses [Promoter]: 0, 10, 20 MG IN 200 µL ACETONE 2/WK FOR 52 WK BEGINNING 2 WK POST CARCINOGEN DOSE (STUDY DURATION: 52 WK), Doses [Promoter]: 0, 10, 20 MG IN 200 µL ACETONE 2/WK FOR 52 WK BEGINNING 2 WK POST CARCINOGEN DOSE (STUDY DURATION: 52 WK), Route [Carcinogen]: DERMAL, Route [Promoter]: DERMAL, Species: MOUSE, Strain/Sex: C3H/FEMALE) was “skin: tumor”.

For `O=C(CO)[C@@H](O)[C@H](O)[C@H](O)CO`, the outcome (Carcinogen: N-NITROSOMORPHOLINE, 59-89-2, Doses [Carcinogen]: 100 MG/KG/WK IN DRINKING WATER FOR 7 WK, Doses [Promoter]: 0, 120 G/L IN DRINKING WATER AD LIBITUM BEGINNING 2 D AFTER LAST CARCINOGEN DOSE (STUDY DURATION: 501 D), Route [Carcinogen]: ORAL, Route [Promoter]: ORAL, Species: RAT, Strain/Sex: SPRAGUE-DAWLEY/MALE) is given as “liver: hepatocellular carcinoma”.

In the case of `Oc1cccc(Cl)c1`, the outcome [1] is given as “integumentary system (skin)”.

In the case of `COc1cc([C@@H]2Oc3cc([C@H]4Oc5cc(O)cc(O)c5C(=O)[C@@H]4O)ccc3O[C@H]2CO)ccc1O`, the outcome (Carcinogen: 1-Methyl-1-nitrosourea, 684-93-5, Doses [Carcinogen]: 50 mg/lg once 30 days after initial silymarin dose, Doses [Promoter]: 0, 0.03, 0.1, 0.3, 1% (w/w) in diet for 140 d beginning at 21 d of age, Doses [Promoter]: 0, 0.03, 0.1, 0.3, 1% (w/w) in diet for 140 d beginning at 21 d of age, Route [Carcinogen]: Intraperitoneal, Route [Promoter]: Oral, Species: Rat, Strain/Sex: Sprague-Dawley/Female (30/27), (30/25), (30/27), (30/23), Strain/Sex: Sprague-Dawley/Female (30/27), (30/25), (30/27), (30/23)) is listed as “mammary gland: tumors. silymarin demonstrated a slight enhancement of mammary ca”.
